This note sets out measurements from ChEMBL document CHEMBL1135926, “Structure-based design of novel potent nonpeptide thrombin inhibitors” (J Med Chem, 2002).

SMILES strings stand for the structures. pIC50, pKi: −log10 of the molar value. A value given as a limit tells only on which side of the number the result lay.

Chain of Plasminogen (P00747 97-580 limits assumed): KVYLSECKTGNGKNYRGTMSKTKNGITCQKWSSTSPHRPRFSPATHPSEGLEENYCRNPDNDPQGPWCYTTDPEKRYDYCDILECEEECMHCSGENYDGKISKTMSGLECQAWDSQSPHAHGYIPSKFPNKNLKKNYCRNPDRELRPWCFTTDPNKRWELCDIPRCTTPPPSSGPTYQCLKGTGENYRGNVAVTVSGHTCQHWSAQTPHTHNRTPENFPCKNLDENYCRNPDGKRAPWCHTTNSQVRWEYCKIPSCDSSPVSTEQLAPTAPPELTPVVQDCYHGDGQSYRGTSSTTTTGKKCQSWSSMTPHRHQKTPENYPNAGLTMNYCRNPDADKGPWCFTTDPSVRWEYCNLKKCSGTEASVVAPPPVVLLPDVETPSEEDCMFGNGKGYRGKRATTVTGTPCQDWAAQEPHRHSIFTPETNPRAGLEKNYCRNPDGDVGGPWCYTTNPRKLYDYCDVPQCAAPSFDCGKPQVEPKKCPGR
Chain of Plasminogen (P00747 581-810 limits assumed): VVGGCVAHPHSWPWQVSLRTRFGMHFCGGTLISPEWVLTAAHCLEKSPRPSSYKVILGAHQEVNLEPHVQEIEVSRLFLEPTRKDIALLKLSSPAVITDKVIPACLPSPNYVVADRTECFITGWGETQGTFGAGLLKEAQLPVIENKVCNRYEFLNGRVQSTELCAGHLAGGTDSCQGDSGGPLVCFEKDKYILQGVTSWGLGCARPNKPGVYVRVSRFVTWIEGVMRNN
Chain of Vitamin K-dependent protein C (P04070 43-197 limits assumed): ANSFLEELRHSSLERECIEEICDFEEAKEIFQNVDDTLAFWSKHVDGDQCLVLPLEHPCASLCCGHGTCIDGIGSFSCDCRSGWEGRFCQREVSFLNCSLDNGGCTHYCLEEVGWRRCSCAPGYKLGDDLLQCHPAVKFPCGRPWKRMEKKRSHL
Chain of Vitamin K-dependent protein C (P04070 212-461 limits assumed): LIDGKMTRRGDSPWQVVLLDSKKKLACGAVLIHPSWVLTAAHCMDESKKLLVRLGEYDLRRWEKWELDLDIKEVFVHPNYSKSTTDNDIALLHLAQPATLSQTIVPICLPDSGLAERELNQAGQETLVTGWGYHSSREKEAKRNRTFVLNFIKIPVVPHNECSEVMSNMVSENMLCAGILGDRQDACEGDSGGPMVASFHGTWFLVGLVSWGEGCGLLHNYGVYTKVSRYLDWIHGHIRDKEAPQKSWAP

One experiment addresses Vitamin K-dependent protein C (Homo sapiens, UniProt P04070). The experiment can be described thus: Inhibitory constant (Ki) was determined against human Activated protein C.
Regarding `Cn1c(CNc2ccc(C(=N)N)cc2)nc2cc(C(=O)N(CCC(=O)O)c3ccccn3)ccc21` [DABIGATRAN], the negative-log Ki (pKi) was 4.68.

A further experiment is filed under the species Homo sapiens. In words: Effective dose was determined against human plasma using PTT reagent. It counts as functional.
In turn, `Cn1c(CNc2ccc(C(=N)N)cc2)nc2cc(C(=O)N(CCC(=O)O)c3ccccn3)ccc21` [DABIGATRAN] came in with an ED2 of 0.23 µM.

A further experiment deals with Tissue-type plasminogen activator (Homo sapiens, UniProt P00750). The experiment can be described thus: Inhibitory constant (Ki) was determined against human Tissue plasminogen activator (tissue plasminogen activator).
Chain of Tissue-type plasminogen activator (P00750 whole entry): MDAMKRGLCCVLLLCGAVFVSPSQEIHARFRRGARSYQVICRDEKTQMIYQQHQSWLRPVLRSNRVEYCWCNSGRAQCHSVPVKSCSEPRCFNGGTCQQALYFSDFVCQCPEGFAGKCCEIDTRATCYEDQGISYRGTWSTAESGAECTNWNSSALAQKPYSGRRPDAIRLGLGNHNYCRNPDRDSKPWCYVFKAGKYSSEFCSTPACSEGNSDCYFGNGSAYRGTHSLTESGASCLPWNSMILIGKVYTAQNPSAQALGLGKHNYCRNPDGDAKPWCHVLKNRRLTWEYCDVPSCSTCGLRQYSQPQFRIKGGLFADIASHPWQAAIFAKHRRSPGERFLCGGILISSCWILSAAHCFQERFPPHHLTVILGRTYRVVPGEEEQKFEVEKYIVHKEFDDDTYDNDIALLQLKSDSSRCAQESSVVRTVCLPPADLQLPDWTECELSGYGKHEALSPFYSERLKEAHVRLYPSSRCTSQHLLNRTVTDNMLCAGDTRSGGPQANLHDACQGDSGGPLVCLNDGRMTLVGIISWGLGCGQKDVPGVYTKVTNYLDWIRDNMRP
On to `Cn1c(CNc2ccc(C(=N)N)cc2)nc2cc(C(=O)N(CCC(=O)O)c3ccccn3)ccc21` [DABIGATRAN], for which the pKi is 4.34.

A further experiment has as its target Prothrombin (Homo sapiens, UniProt P00734). The experiment can be described thus: Inhibition of human thrombin by chromogenic assay.
`Cn1c(CNc2ccc(C(=N)N)cc2)nc2cc(N(CC(=O)O)S(=O)(=O)c3cccc4cccnc34)ccc21` had a pIC50 of 7.96.

The molecule `Cn1c(Cc2ccc(C(=N)N)cc2)nc2cc(NS(=O)(=O)c3ccc4ccccc4c3)ccc21` had a pIC50 of 4.62.

The molecule `Cn1c(CCc2ccc(C(=N)N)cc2)nc2cc(C(=O)N(CC(=O)O)c3ccccc3)ccc21` had a pIC50 of 7.27.

`Cn1c(Cc2ccc(C(=N)N)cc2)nc2cc(N(CCCC(=O)O)S(=O)(=O)c3cccc4cccnc34)ccc21` had a pIC50 of 6.89.

The molecule `Cn1c(Cc2ccc(C(=N)N)cc2)nc2cc(NS(=O)(=O)c3cccnc3)ccc21` showed a pIC50 of 5.80.

Consider `Cn1c(Cc2ccc(C(=N)N)cc2)nc2cc(NS(=O)(=O)c3cccc4ccccc34)ccc21`, for which the pIC50 was 6.22. This pIC50 is 0.42 log units higher than that of the molecule before.

Molecule `COc1ccc(OC)c(S(=O)(=O)Nc2ccc3c(c2)nc(Cc2ccc(C(=N)N)cc2)n3C)c1` had a negative logarithm of the IC50 (pIC50) of 5.74.

`Cn1c(CCc2ccc(C(=N)N)cc2)nc2cc(N(CC(=O)O)S(=O)(=O)c3cccc4cccnc34)ccc21` gave a pIC50 of 7.49.

Molecule `Cn1c(Cc2ccc(C(=N)N)cc2)nc2cc(NS(=O)(=O)c3cccc4cccnc34)ccc21` showed a negative logarithm of the IC50 (pIC50) of 6.59. This pIC50 lies 0.90 log units lower than the previous one.

For `Cn1c(Cc2ccc(C(=N)N)cc2)nc2cc(N(CC(=O)O)S(=O)(=O)c3cccc4cccnc34)ccc21`, the pIC50 is 6.92.

The molecule `CCCn1c(Cc2ccc(C(=N)N)cc2)nc2cc(NS(=O)(=O)c3ccccc3)ccc21` showed a pIC50 of 5.40.

In turn, `Cn1c(CNc2ccc(C(=N)N)cc2)nc2cc(C(=O)N(CCC(=O)O)c3ccccc3)ccc21` gave a pIC50 of 8.27. This pIC50 is 2.87 log units higher than that of the molecule before.

Molecule `Cn1c(Cc2ccc(C(=N)N)cc2)nc2cc(NS(=O)(=O)c3cc(C(F)(F)F)cc(C(F)(F)F)c3)ccc21` showed a pIC50 of less than 4.00.

The molecule `CCn1c(Cc2ccc(C(=N)N)cc2)nc2cc(NS(=O)(=O)c3ccccc3)ccc21` showed a pIC50 of 5.62.

With `Cn1c(CNc2ccc(C(=N)N)cc2)nc2cc(C(=O)N(CC(=O)O)c3ccccc3)ccc21`, the negative-log IC50 (pIC50) was 8.00.

As for `N=C(N)c1ccc(Cc2nc3cc(NS(=O)(=O)c4ccccc4)ccc3[nH]2)cc1`, the pIC50 is 4.72.

As for `Cn1c(COc2ccc(C(=N)N)cc2)nc2cc(C(=O)N(CC(=O)O)c3ccccc3)ccc21`, the pIC50 is 6.48.

`Cn1c(CNc2ccc(C(=N)N)cc2)nc2cc(C(=O)N(CCCC(=O)O)c3ccccc3)ccc21` had a negative-log IC50 (pIC50) of 8.00.

`CN(c1ccc2c(c1)nc(Cc1ccc(C(=N)N)cc1)n2C)S(=O)(=O)c1ccccc1` gave a negative logarithm of the IC50 (pIC50) of 5.89.

Molecule `Cn1c(Cc2ccc(C(=N)N)cc2)nc2cc(NS(=O)(=O)c3cccc4cnccc34)ccc21` showed a pIC50 of 6.29.

Molecule `Cn1c(COc2ccc(C(=N)N)cc2)nc2cc(N(CC(=O)O)S(=O)(=O)c3cccc4cccnc34)ccc21` gave a pIC50 of 7.24.

The target in the next experiment is Trypsin (Homo sapiens, UniProt P07477+P07478+P35030). The experiment can be described thus: Inhibitory constant (Ki) was determined against human trypsin. The format is protein assay.
On to `Cn1c(CNc2ccc(C(=N)N)cc2)nc2cc(C(=O)N(CCC(=O)O)c3ccccn3)ccc21` [DABIGATRAN], for which the Ki is 50.3 nM.

The next experiment concerns the target Plasminogen (Homo sapiens, UniProt P00747). In words: Inhibitory constant (Ki) was determined against human plasmin.
Regarding `Cn1c(CNc2ccc(C(=N)N)cc2)nc2cc(C(=O)N(CCC(=O)O)c3ccccn3)ccc21` [DABIGATRAN], the pKi was 5.77.
